Source: patent publication US20240067632A1, “WEE1 Degrading Compounds and Uses Thereof” (Bristol-Myers Squibb Company, priority 2022, published 2024)
Read-outs that look alike come from different tables or passages of the source.

Tests used:
WEE1 = molecular target: T1, WEE1 (Homo sapiens, UniProt P30291+Q96SW2); assay: WEE1-ePL degradation assay (LentiX-WEE1-ePL-GSPT1-ND cells, InCELL Hunter luminescence, 4 h); type: cell-based; settings: 293T-LentiX WEE1-ePL cells; for DC50: read-out: 293T-LentiX WEE1-ePL Degradation 4 hr (EC50)
T1 construct: C-terminal ePL-tagged (DiscoverX, Fremont, CA) full-length WEE1 expression construct; expressed in transfected cells; host or cells: LentiX-HEK293T (Invitrogen), lentiviral transduction; co-expressing GSPT1-GN (G576N, lacking the first 158 amino acids)
How it was run: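 First, compounds were pre-plated as 10-point, 3-fold dilutions (top 1 uM or 10 uM) with DMSO control; next, WEE1-ePL-expressing HEK293T cells were added and held 4 h at 37 °C; finally, InCELL Hunter reagent was applied for 30 min before luminescence reading. A 4PL fit gave EC50 and Ymin.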

MKN45 cells = assay: MKN45 cell proliferation assay (Cell-Titer-Glo, 120 h); type: cell-based; settings: for EC50: Homo sapiens, MKN-45, 120 h, Cell-Titer-Glo, read-out: MKN45 Cell Prolif. 120 hr (EC50); for MKN45 Cell Prolif. 120 hr (Ymin-Obs): minimal percent of DMSO control observed in the concentrations tested
How it was run: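 Cells seeded at 400/well onto pre-printed 10-point half-log dilutions (top 1 or 10 uM, 0.1% DMSO final), in triplicate, and grown 120 h at 37 C. Viability by Cell-Titer-Glo luminescence, blank-subtracted and normalised to DMSO; EC50 from four-parameter logistic fit, with observed minimal % of control recorded as Ymin-obs.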

[1] = lower limit of the fit (Ymin=0 luciferase inhibitor, Ymax DMSO control)
[2] = lower limit of the fit (0 = luciferase inhibitor, Ymax = DMSO control)

SMILES: C[C@@H]1CC(c2ccc3cc(CN4CC[C@H](Oc5ccc6c(c5)CN(C5CCC(=O)NC5=O)C6=O)C4)ccc3n2)C[C@@H](C)O1 (stereo partly drawn) [3-(5-{[(3S)-1-({2-[(2R,6R)-2,6-dimethyloxan-4-yl]quinolin-6-yl}methyl)pyrrolidin-3-yl]oxy}-1-oxo-2,3-dihydro-1H-isoindol-2-yl)piperidine-2,6-dione]
- 293T-LentiX WEE1-ePL Degradation 4 hr (Ymin) (WEE1; [1]): 25.33
- DC50 (WEE1): 5.2 nM
- EC50 (MKN45 cells): 5.09 nM
- MKN45 Cell Prolif. 120 hr (Ymin-Obs) (MKN45 cells): 10.09

SMILES: C[C@@H]1CC(c2ccc3cc(CN4CC[C@H](Oc5ccc6c(c5)CN(C5CCC(=O)NC5=O)C6=O)C4)ccc3n2)C[C@H](C)O1 (stereo partly drawn) [3-(5-{[(3S)-1-({2-[(2R,6S)-2,6-dimethyloxan-4-yl]quinolin-6-yl}methyl)pyrrolidin-3-yl]oxy}-1-oxo-2,3-dihydro-1H-isoindol-2-yl)piperidine-2,6-dione]
- 293T-LentiX WEE1-ePL Degradation 4 hr (Ymin) (WEE1; [2]): 30.42
- DC50 (WEE1): 11.7 nM
- EC50 (MKN45 cells; growth inhibition): 10.4 nM
- MKN45 Cell Prolif. 120 hr (Ymin-Obs) (MKN45 cells): 14.48

SMILES: C[C@H]1CC(c2ccc3cc(CN4CC[C@H](Oc5ccc6c(c5)CN(C5CCC(=O)NC5=O)C6=O)C4)ccc3n2)CCO1 (stereo partly drawn) [3-(5-{[(3S)-1-({2-[(2S)-2-methyloxan-4-yl]quinolin-6-yl}methyl)pyrrolidin-3-yl]oxy}-1-oxo-2,3-dihydro-1H-isoindol-2-yl)piperidine-2,6-dione]
- 293T-LentiX WEE1-ePL Degradation 4 hr (Ymin) (WEE1; [2]): 28.55
- DC50 (WEE1): 2.97 nM
- EC50 (MKN45 cells; growth inhibition): 4.39 nM
- MKN45 Cell Prolif. 120 hr (Ymin-Obs) (MKN45 cells): 10.88

SMILES: CN1CC[C@@H](c2ncc3cc(CN4CC[C@H](Oc5ccc6c(c5)CN(C5CCC(=O)NC5=O)C6=O)C4)ccc3n2)C1 (stereo partly drawn) [3-(5-{[(3S)-1-({2-[(3R)-1-methylpyrrolidin-3-yl]quinazolin-6-yl}methyl)pyrrolidin-3-yl]oxy}-1-oxo-2,3-dihydro-1H-isoindol-2-yl)piperidine-2,6-dione]
- 293T-LentiX WEE1-ePL Degradation 4 hr (Ymin) (WEE1; [1]): 37.05
- DC50 (WEE1): 225 nM
- EC50 (MKN45 cells): 48.4 nM
- MKN45 Cell Prolif. 120 hr (Ymin-Obs) (MKN45 cells): 13.19

SMILES: CN1CC[C@@H](c2ccc3cc(CN4CC[C@H](Oc5ccc6c(c5)CN(C5CCC(=O)NC5=O)C6=O)C4)ccc3n2)C1 (stereo partly drawn) [3-(5-{[(3S)-1-({2-[(3R)-1-methylpyrrolidin-3-yl]quinolin-6-yl}methyl)pyrrolidin-3-yl]oxy}-1-oxo-2,3-dihydro-1H-isoindol-2-yl)piperidine-2,6-dione]
- 293T-LentiX WEE1-ePL Degradation 4 hr (Ymin) (WEE1; [2]): 37
- DC50 (WEE1): 67.4 nM
- EC50 (MKN45 cells; growth inhibition): 90.5 nM
- MKN45 Cell Prolif. 120 hr (Ymin-Obs) (MKN45 cells): 11.69

SMILES: O=C1CCC(N2Cc3cc(O[C@H]4CCN(Cc5ccc6nc(N7CC[C@@H](O)C7)ccc6c5)C4)ccc3C2=O)C(=O)N1 (stereo partly drawn) [3-(5-{[(3S)-1-({2-[(3R)-3-hydroxypyrrolidin-1-yl]quinolin-6-yl}methyl)pyrrolidin-3-yl]oxy}-1-oxo-2,3-dihydro-1H-isoindol-2-yl)piperidine-2,6-dione]
- 293T-LentiX WEE1-ePL Degradation 4 hr (Ymin) (WEE1; [2]): 36
- DC50 (WEE1): 17.5 nM
- EC50 (MKN45 cells; growth inhibition): 20.9 nM
- MKN45 Cell Prolif. 120 hr (Ymin-Obs) (MKN45 cells): 11.85

SMILES: CO[C@@H]1CCCN(c2ccc3cc(CN4CC[C@H](Oc5ccc6c(c5)CN(C5CCC(=O)NC5=O)C6=O)C4)ccc3n2)C1 (stereo partly drawn) [3-(5-{[(3S)-1-({2-[(3R)-3-methoxypiperidin-1-yl]quinolin-6-yl}methyl)pyrrolidin-3-yl]oxy}-1-oxo-2,3-dihydro-1H-isoindol-2-yl)piperidine-2,6-dione]
- 293T-LentiX WEE1-ePL Degradation 4 hr (Ymin) (WEE1; [2]): 34
- DC50 (WEE1): 4.32 nM
- EC50 (MKN45 cells; growth inhibition): 3.91 nM
- MKN45 Cell Prolif. 120 hr (Ymin-Obs) (MKN45 cells): 6.79

SMILES: CO[C@@H]1CCN(c2ccc3cc(CN4CC[C@H](Oc5ccc6c(c5)CN(C5CCC(=O)NC5=O)C6=O)C4)ccc3n2)C1 (stereo partly drawn) [3-(5-{[(3S)-1-({2-[(3R)-3-methoxypyrrolidin-1-yl]quinolin-6-yl}methyl)pyrrolidin-3-yl]oxy}-1-oxo-2,3-dihydro-1H-isoindol-2-yl)piperidine-2,6-dione]
- 293T-LentiX WEE1-ePL Degradation 4 hr (Ymin) (WEE1; [2]): 37
- DC50 (WEE1): 2.46 nM
- EC50 (MKN45 cells; growth inhibition): 3.67 nM
- MKN45 Cell Prolif. 120 hr (Ymin-Obs) (MKN45 cells): 8.99

SMILES: O=C1CCC(N2Cc3cc(O[C@H]4CCN(Cc5ccc6nc([C@H]7CCCOC7)ncc6c5)C4)ccc3C2=O)C(=O)N1 (stereo partly drawn) [3-(5-{[(3S)-1-({2-[(3R)-oxan-3-yl]quinazolin-6-yl}methyl)pyrrolidin-3-yl]oxy}-1-oxo-2,3-dihydro-1H-isoindol-2-yl)piperidine-2,6-dione]
- 293T-LentiX WEE1-ePL Degradation 4 hr (Ymin) (WEE1; [2]): 28.5
- DC50 (WEE1): 16 nM
- EC50 (MKN45 cells; growth inhibition): 8.8 nM
- MKN45 Cell Prolif. 120 hr (Ymin-Obs) (MKN45 cells): 6.66

SMILES: O=C1CCC(N2Cc3cc(O[C@H]4CCN(Cc5ccc6nc([C@H]7CCCOC7)ccc6c5)C4)ccc3C2=O)C(=O)N1 (stereo partly drawn) [3-(5-{[(3S)-1-({2-[(3R)-oxan-3-yl]quinolin-6-yl}methyl)pyrrolidin-3-yl]oxy}-1-oxo-2,3-dihydro-1H-isoindol-2-yl)piperidine-2,6-dione]
- 293T-LentiX WEE1-ePL Degradation 4 hr (Ymin) (WEE1; [2]): 32.33
- DC50 (WEE1): 3.33 nM
- EC50 (MKN45 cells; growth inhibition): 5.28 nM
- MKN45 Cell Prolif. 120 hr (Ymin-Obs) (MKN45 cells): 12.5

SMILES: CN1CC[C@H](c2ncc3cc(CN4CC[C@H](Oc5ccc6c(c5)CN(C5CCC(=O)NC5=O)C6=O)C4)ccc3n2)C1 (stereo partly drawn) [3-(5-{[(3S)-1-({2-[(3S)-1-methylpyrrolidin-3-yl]quinazolin-6-yl}methyl)pyrrolidin-3-yl]oxy}-1-oxo-2,3-dihydro-1H-isoindol-2-yl)piperidine-2,6-dione]
- 293T-LentiX WEE1-ePL Degradation 4 hr (Ymin) (WEE1; [1]): 36.52
- DC50 (WEE1): 248 nM
- EC50 (MKN45 cells): 84.1 nM
- MKN45 Cell Prolif. 120 hr (Ymin-Obs) (MKN45 cells): 17.35

SMILES: CN1CC[C@H](c2ccc3cc(CN4CC[C@H](Oc5ccc6c(c5)CN(C5CCC(=O)NC5=O)C6=O)C4)ccc3n2)C1 (stereo partly drawn) [3-(5-{[(3S)-1-({2-[(3S)-1-methylpyrrolidin-3-yl]quinolin-6-yl}methyl)pyrrolidin-3-yl]oxy}-1-oxo-2,3-dihydro-1H-isoindol-2-yl)piperidine-2,6-dione]
- 293T-LentiX WEE1-ePL Degradation 4 hr (Ymin) (WEE1; [2]): 37
- DC50 (WEE1): 67.5 nM
- EC50 (MKN45 cells; growth inhibition): 59.7 nM
- MKN45 Cell Prolif. 120 hr (Ymin-Obs) (MKN45 cells): 12.73

SMILES: O=C1CCC(N2Cc3cc(O[C@H]4CCN(Cc5ccc6nc(N7CC[C@H](O)C7)ccc6c5)C4)ccc3C2=O)C(=O)N1 (stereo partly drawn) [3-(5-{[(3S)-1-({2-[(3S)-3-hydroxypyrrolidin-1-yl]quinolin-6-yl}methyl)pyrrolidin-3-yl]oxy}-1-oxo-2,3-dihydro-1H-isoindol-2-yl)piperidine-2,6-dione]
- 293T-LentiX WEE1-ePL Degradation 4 hr (Ymin) (WEE1; [2]): 36.5
- DC50 (WEE1): 10.4 nM
- EC50 (MKN45 cells; growth inhibition): 11.4 nM
- MKN45 Cell Prolif. 120 hr (Ymin-Obs) (MKN45 cells): 7.1

SMILES: CO[C@H]1CCCN(c2ccc3cc(CN4CC[C@H](Oc5ccc6c(c5)CN(C5CCC(=O)NC5=O)C6=O)C4)ccc3n2)C1 (stereo partly drawn) [3-(5-{[(3S)-1-({2-[(3S)-3-methoxypiperidin-1-yl]quinolin-6-yl}methyl)pyrrolidin-3-yl]oxy}-1-oxo-2,3-dihydro-1H-isoindol-2-yl)piperidine-2,6-dione]
- 293T-LentiX WEE1-ePL Degradation 4 hr (Ymin) (WEE1; [2]): 34
- DC50 (WEE1): 5.83 nM
- EC50 (MKN45 cells; growth inhibition): 5.29 nM
- MKN45 Cell Prolif. 120 hr (Ymin-Obs) (MKN45 cells): 10.12

SMILES: CO[C@H]1CCN(c2ccc3cc(CN4CC[C@H](Oc5ccc6c(c5)CN(C5CCC(=O)NC5=O)C6=O)C4)ccc3n2)C1 (stereo partly drawn) [3-(5-{[(3S)-1-({2-[(3S)-3-methoxypyrrolidin-1-yl]quinolin-6-yl}methyl)pyrrolidin-3-yl]oxy}-1-oxo-2,3-dihydro-1H-isoindol-2-yl)piperidine-2,6-dione]
- 293T-LentiX WEE1-ePL Degradation 4 hr (Ymin) (WEE1; [2]): 34
- DC50 (WEE1): 3.58 nM
- EC50 (MKN45 cells; growth inhibition): 1.58 nM
- MKN45 Cell Prolif. 120 hr (Ymin-Obs) (MKN45 cells): 9.12

SMILES: O=C1CCC(N2Cc3cc(O[C@H]4CCN(Cc5ccc6nc([C@@H]7CCCOC7)ncc6c5)C4)ccc3C2=O)C(=O)N1 (stereo partly drawn) [3-(5-{[(3S)-1-({2-[(3S)-oxan-3-yl]quinazolin-6-yl}methyl)pyrrolidin-3-yl]oxy}-1-oxo-2,3-dihydro-1H-isoindol-2-yl)piperidine-2,6-dione]
- 293T-LentiX WEE1-ePL Degradation 4 hr (Ymin) (WEE1; [2]): 31
- DC50 (WEE1): 33.8 nM
- EC50 (MKN45 cells; growth inhibition): 19.4 nM
- MKN45 Cell Prolif. 120 hr (Ymin-Obs) (MKN45 cells): 5.31

SMILES: O=C1CCC(N2Cc3cc(O[C@H]4CCN(Cc5ccc6nc([C@@H]7CCCOC7)ccc6c5)C4)ccc3C2=O)C(=O)N1 (stereo partly drawn) [3-(5-{[(3S)-1-({2-[(3S)-oxan-3-yl]quinolin-6-yl}methyl)pyrrolidin-3-yl]oxy}-1-oxo-2,3-dihydro-1H-isoindol-2-yl)piperidine-2,6-dione]
- 293T-LentiX WEE1-ePL Degradation 4 hr (Ymin) (WEE1; [2]): 32
- DC50 (WEE1): 2.15 nM
- EC50 (MKN45 cells; growth inhibition): 3.59 nM
- MKN45 Cell Prolif. 120 hr (Ymin-Obs) (MKN45 cells): 10.6

SMILES: O=C1CCC(N2Cc3cc(O[C@H]4CCN(Cc5ccc6nc(N7C[C@H]8CCO[C@H]8C7)ncc6c5)C4)ccc3C2=O)C(=O)N1 (stereo partly drawn) [3-(5-{[(3S)-1-({2-[(3aR,6aR)-hexahydro-2H-furo[2,3-c]pyrrol-5-yl]quinazolin-6-yl}methyl)pyrrolidin-3-yl]oxy}-1-oxo-2,3-dihydro-1H-isoindol-2-yl)piperidine-2,6-dione]
- 293T-LentiX WEE1-ePL Degradation 4 hr (Ymin) (WEE1; [2]): 35
- DC50 (WEE1): 12.6 nM
- EC50 (MKN45 cells; growth inhibition): 13.4 nM
- MKN45 Cell Prolif. 120 hr (Ymin-Obs) (MKN45 cells): 13.09

SMILES: O=C1CCC(N2Cc3cc(O[C@H]4CCN(Cc5ccc6nc(N7C[C@H]8CCO[C@H]8C7)ccc6c5)C4)ccc3C2=O)C(=O)N1 (stereo partly drawn) [3-(5-{[(3S)-1-({2-[(3aR,6aR)-hexahydro-2H-furo[2,3-c]pyrrol-5-yl]quinolin-6-yl}methyl)pyrrolidin-3-yl]oxy}-1-oxo-2,3-dihydro-1H-isoindol-2-yl)piperidine-2,6-dione]
- 293T-LentiX WEE1-ePL Degradation 4 hr (Ymin) (WEE1; [2]): 37
- DC50 (WEE1): 3.2 nM
- EC50 (MKN45 cells; growth inhibition): 6.09 nM
- MKN45 Cell Prolif. 120 hr (Ymin-Obs) (MKN45 cells): 14.13
